Assay results reported in paper PMC10108821, “Three tyrosine kinase inhibitors cause cardiotoxicity by inducing endoplasmic reticulum stress and inflammation in cardiomyocytes” (BMC Medicine, 2023).

Legend:
Cor.4U hiPSC-CMs [1] = test: 3'DGE-UMI RNAseq transcriptome of hiPSC-CMs; conditions: for expression of mitochondrial tRNA and electron transfer chain genes: high PC2 loadings; for expression of genes associated with heart contraction: Cluster 4, day 3 or day 5
Cor.4U hiPSC-CMs [2] = test: ATP level (CellTiter-Glo) in hiPSC-CMs; format: cell-based, human; conditions: for effect on ATP levels: 0.32 to 10 µM, day 1 to day 5; for dose-dependent toxicity (ATP fold changes): day 1, different doses; for dose-dependent toxicity (ATP fold changes) / time-dependent toxicity (ATP fold changes): RNAseq conditions; for time-dependent toxicity (ATP fold changes): fixed dose over 5 days
Procedure: ATP content was measured using the CellTiter-Glo Luminescent Cell Viability Assay (Promega) following the manufacturer’s protocol. After adding CellTiter-Glo reagents and incubation, luminescence was quantified using a Synergy H1 plate reader (BioTek Instruments). ATP standards were prepared from 0.01 to 5 μM. For each drug, we fitted a four-parameter log-logistic model to calculate ED50 at day 5 (Fig S1). To rank the cellular toxicity of the eight TKIs (Fig 1T), we calculated (EC50-Cmax)/(EC50+Cmax) and arranged from the smallest to the biggest for increasing cellular toxicity.

patients = conditions: cited from earlier work; for level of cardiotoxicity based on literature reports: ref Table S1, 2, 4, 26–36
NRCMs [3] = test: Mitochondrial membrane potential by TMRE staining; format: cell-based, rat; conditions: 24 h of treatment
NRCMs [4] = test: Seahorse assay: oxygen consumption and extracellular acidification; format: cell-based, rat; conditions: 24 h; fixed doses: 10 µM, crizotinib and ponatinib 3.16 µM
Procedure: (§1) Rats were euthanized by decapitation and thoracic cavity was opened with scissors and hearts were popped out of the opening gently with fingers. Hearts were clipped and put in HBSS immediately; 20–40 hearts were collected into one sterile vial containing a magnetic stir bar and 1 mL digestive media made of 0.1% trypsin (Macklin) and 0.05% collagenase (Gibco) in HBSS. Hearts were minced until they were uniform in size. Digestive media was added to 10 mL for 40 hearts and stirred gently for 6 min. Supernatant was discarded and the digestion was repeated once; 10 mL digestive media was added and stirred gently for 10 min. The supernatant with cells were collected and the digestion and collection were repeated 4 times. Cells were centrifuged at 1200 rpm for 5 min, resuspended in media (Dulbecco’s modified Eagleʼs medium (Gibco)) with 10% fetal bovine serum (FBS; VISTECH), 1% penicillin–streptomycin, and 1% 0.1 M 5-bromo-2-deoxyuridine solution (Shanghai Yuanye) and filtered through a 40-μm cell strainer. Cells were seeded on a 100-mm plastic dish and cultured in a 5% CO2 incubator at 37 °C for 2 h to allow non-myocytes to adhere to the plate. The dish was swirled and media gently pipetted up and down to detach lightly attached cardiomyocytes. The collected myocytes were seeded in the same media described before; 48 h after plating, medium was exchanged to fresh DMEM (Gibco) with or without 2% FBS. All drug treatments were performed after this media change.
NRCMs were seeded evenly into the Seahorse XF96 cell culture plates (Agilent) and cultured in DMEM high glucose with 2% FBS. About 2 hours before the test, cells were moved to a non-CO2 incubator at 37 ° C and incubated for 1 hour. 1 hour prior to the test, culture media was replaced with the Seahorse Basal DMEM at 37°C (with appropriate concentration of glucose, 4mM L-glutamine, 1 mM sodium pyruvate and 1% penicillin-streptomycin solution) and incubated in a non-CO2 incubator at 37°C for 1 hour. Drugs were prepared at 8x to 10x concentrations with the corresponding seahorse media as in each well and added into ports of Seahorse XF96 cartridge plates which have been hydrated overnight. XFe96 Extracellular Flux Analyzer (Agilent) was used to measure oxygen consumption rate and extracellular acidification rate of cells with different drug treatments.

HELP hiPSC-CMs = test: CardioExcyte 96 microelectrode array: base impedance and extracellular field potential; format: cell-based, human; conditions: fixed doses: 10 µM, crizotinib and ponatinib 3.16 µM; up to 24 h
Procedure: HELP hiPSC-CMs were seeded evenly into the 96-well microelectrode array, NSP-96 0.6mm sensor plate (Nanion technologies), at 50,000 cells per well. Measurements were started after 3-5 days of culture of these cells and until the impedance and the extracellular field potential are stable. Measurements were taken a few times before drug addition, and every 30~60 minutes after the drugs were added at 2x concentration. Values were averaged from 3 wells per group. Beat rate, amplitude of impedance, base impedance and FPDc were calculated by the Cardio Excyte Control 96 software package (Nanion Technologies).

ER stress genes in NRCMs = test: qRT-PCR of ER stress genes in NRCMs; format: cell-based, rat; conditions: trolox 1 mM with afatinib or sorafenib
Procedure: as §1, with “The collected myocytes were seeded in the same media described before; 48 h after plating, medium was exchanged to fresh DMEM (Gibco) with or without 2% FBS.” left out
RNA was isolated based on a standard protocol using TRIzol reagent (Vazyme). TRIzol (1ml per 1 well of a 6-well plate) was used to lyse cells and chloroform was added for RNA separation. Samples were shaked vigorously by hand for 15 seconds and incubated at room temperature for 2-3 minutes. RNA was present in the aqueous phase after centrifuge at 12000 x g for 15 minutes. Isopropyl alcohol was mixed to precipitate RNA from the aqueous phase. […] 1 μg total RNA was used for cDNA synthesis using a reverse transcription kit (Bioman). We then measured expression of genes of interest with SYBRR Green qPCR Mix (Bioman) using Applied Biosystems 7500 Quantitative PCR Instrument. Gene expression was normalized to the 18S ribosomal RNA expression and primers were listed in Primers Table.

NRCMs [5] = test: Lipid peroxidation by C11-bodipy 581/591 and flow cytometry; conditions: 100 µM, 3 hours, Fig. S15
Procedure: For ROS assessment, cells were washed with PBS once and stained with 10μM H2DCFHDA (MCE) in phenol red-free DMEM (Procell) in a humid incubator with 5% CO2 at 37°C for 30 minutes. Cells were washed with PBS twice and dissociated to single cells before flow cytometry analysis at the FITC channel. For lipid peroxidation measurement, cells were washed with PBS once and stained with 2μM C11-bodipy^581/591 (Cayman) in phenol red-free DMEM (Procell) in a humid incubator with 5% CO2 at 37°C for 30 minutes. Cells were washed with PBS twice and dissociated to single cells before flow cytometry analysis at both the FITC and the PE channels. Fluorescence of the oxidized C11-bodipy were acquired through the FITC channel (Ex/Em=488/520nm) and that of the non-oxidized C11-bodipy through the PE channel (Ex/Em=555/624nm).

NRCMs [6] = conditions: ISRIB 200 nM or 4μ8c 10 μM with 10 µM sorafenib, 24-hr
Procedure: After treatment, cells were stained with 5 μg/mL Propidium iodide (Sigma-Aldrich) mixed with Hoechst33342 (Solarbio) in Phenol red-free DMEM (Procell) in a 5% CO2 incubator at 37°C for 30 minutes. Images of PI staining were acquired through the filter Ex/Em=555/624nm and of the nuclei staining through the filter Ex/Em=405/452 using ImageXpress Micro Confocal-AWES (Molecular Devices).

NRCMs [7] = test: qRT-PCR of fetal, pro-inflammatory and ER stress genes with pathway-selective inhibitors; format: cell-based, rat; conditions: 24 h
Procedure: as §1
(§2) RNA was isolated based on a standard protocol using TRIzol reagent (Vazyme). TRIzol (1ml per 1 well of a 6-well plate) was used to lyse cells and chloroform was added for RNA separation. Samples were shaked vigorously by hand for 15 seconds and incubated at room temperature for 2-3 minutes. RNA was present in the aqueous phase after centrifuge at 12000 x g for 15 minutes. Isopropyl alcohol was mixed to precipitate RNA from the aqueous phase. RNA precipitations were washed with 75% ethanol once and re-dissolved in RNase-free water. 1 μg total RNA was used for cDNA synthesis using a reverse transcription kit (Bioman). We then measured expression of genes of interest with SYBRR Green qPCR Mix (Bioman) using Applied Biosystems 7500 Quantitative PCR Instrument. Gene expression was normalized to the 18S ribosomal RNA expression and primers were listed in Primers Table.

H9C2 cell line = test: qRT-PCR of inflammatory genes in H9C2 cells; format: cell-based, rat; conditions: ISRIB 200 nM or salubrinal 20 μM with 3 TKIs, 24-hr
Procedure: as §2
H9C2 cells were a gift from Dr. Rong Qi in Peking University Health Science Center (they were originally purchased from the Cell Bank/Stem cell bank, Chinese Academy of Science). […] Media was changed to DMEM (Gibco) containing 2% FBS 12 hours before treatment. All treatments were performed under DMEM containing 2% FBS.

effect on beat rate, contraction, base impedance and corrected field potential duration (HELP hiPSC-CMs) | SMILES | effect on ATP levels (Cor.4U hiPSC-CMs [2]) | dose-dependent toxicity (ATP fold changes) (Cor.4U hiPSC-CMs [2]) | level of cardiotoxicity based on literature reports (patients) | basal oxygen consumption rate (OCR) (NRCMs [4]) | other results
 | Cc1c(C)c2c(c(C)c1O)CCC(C)(C(=O)O)O2 (stereo not drawn) [trolox] |  |  |  |  | effect on induction of ER stress by TKIs (ER stress genes in NRCMs): did not block the induction of ER stress by these TKIs
 | CC(C)(OO)c1ccccc1 [cumene hydroperoxide] |  |  |  |  | level of lipid peroxidation, positive control (NRCMs [5]): 42%
minimal effects on these parameters | Cc1cn(-c2cc(NC(=O)c3ccc(C)c(Nc4nccc(-c5cccnc5)n4)c3)cc(C(F)(F)F)c2)cn1 [nilotinib] | dose-dependent and time-dependent reduction in ATP levels |  | medium-levels of cardiotoxicity |  | EC50 (ATP) compared with maximal plasma concentration (Cmax) (Cor.4U hiPSC-CMs [2]; day 5): lower than or similar to their maximal plasma concentrations (Cmax); mitochondrial membrane potential (NRCMs [3]): trend of decreasing mitochondrial membrane potentials
minimal effects on these parameters | COc1cc2ncnc(Nc3ccc(F)c(Cl)c3)c2cc1OCCCN1CCOCC1 [gefitinib] | did not inhibit ATP at any dose or time point tested | did not | low cardiotoxicity |  | expression of genes associated with heart contraction (Cor.4U hiPSC-CMs [1]): upregulated
 | Cc1cc(=O)oc2c(C=O)c(O)ccc12 [4μ8c] |  |  |  |  | rescue from cell death induced by sorafenib (NRCMs [6]): significantly rescued cardiac cell from death induced by sorafenib; induction of inflammatory genes and cardiac fetal genes (Anp, Bnp/Nppb, Myh6) by TKIs (NRCMs [7]; 4μ8c 10 μM co-treatment with TKIs): blunted; effect on Atf4, Ddit3, Xbp1s and Dnajb9 expression induced by TKIs (NRCMs [7]; ISRIB 200 nM or 4μ8c 10 μM with TKIs): inhibited Xbp1s and Dnajb9 without affecting the ATF4 axis
 | O=C(/C=C/c1ccccc1)NC(NC(=S)Nc1cccc2cccnc12)C(Cl)(Cl)Cl (stereo not drawn) [salubrinal] |  |  |  |  | expression of inflammatory genes induced by TKIs (H9C2 cell line): increased the expression level of some pro-inflammatory genes, such as Nfkb1, Il6, and Tnf, but not Il1b
minimal effects on these parameters | Cc1nc(Nc2ncc(C(=O)Nc3c(C)cccc3Cl)s2)cc(N2CCN(CCO)CC2)n1 [dasatinib] | did not inhibit ATP at any dose or time point tested | did not | medium-levels of cardiotoxicity | trend of inhibiting basal oxygen consumption rate (OCR) | expression of genes associated with heart contraction (Cor.4U hiPSC-CMs [1]): upregulated; time-dependent toxicity (ATP fold changes) (Cor.4U hiPSC-CMs [2]): increasing toxicity with treatment duration

SMILES | effect on beat rate, contraction, base impedance and corrected field potential duration (HELP hiPSC-CMs) | effect on ATP levels (Cor.4U hiPSC-CMs [2]) | dose-dependent toxicity (ATP fold changes) (Cor.4U hiPSC-CMs [2]) | level of cardiotoxicity based on literature reports (patients) | basal oxygen consumption rate (OCR) (NRCMs [4]) | other results
CCN(CC)CCNC(=O)c1c(C)[nH]c(/C=C2\C(=O)Nc3ccc(F)cc32)c1C [sunitinib] | increased beat rate initially and reduced the base impedance very acutely | dose-dependent and time-dependent reduction in ATP levels | dose-dependent toxicity | high-levels of cardiotoxicity | trend of inhibiting basal oxygen consumption rate (OCR) | expression of mitochondrial tRNA and electron transfer chain genes (Cor.4U hiPSC-CMs [1]): upregulated; time-dependent toxicity (ATP fold changes) (Cor.4U hiPSC-CMs [2]): increasing toxicity with treatment duration; congestive heart failure (patients; meta-analysis of 6935 patients): 4.1%; mitochondrial membrane potential (NRCMs [3]): trend of decreasing mitochondrial membrane potentials; maximal, spare and non-mitochondrial oxygen consumption (NRCMs [4]): inhibited maximal, spare, and non-mitochondrial oxygen consumption significantly
C[C@@H](Oc1cc(-c2cnn(C3CCNCC3)c2)cnc1N)c1c(Cl)ccc(F)c1Cl [crizotinib] | stopped beating and contraction of hiPSC-CMs after 0.5 h of treatment | dose-dependent and time-dependent reduction in ATP levels | dose-dependent toxicity | medium-levels of cardiotoxicity | trend of inhibiting basal oxygen consumption rate (OCR) | expression of mitochondrial tRNA and electron transfer chain genes (Cor.4U hiPSC-CMs [1]): upregulated
